Measurements as given in article PMC7615677 (Science translational medicine, 2023).
Where two headings read alike, the source gives them in different places.

What was measured:
D1 = target: T1, D1 (Homo sapiens, UniProt P21728); assay: In vitro pharmacology panel (Eurofins); format: binding; settings: read-out: activity (% of DMSO control)
T1 construct: purchased Eurofins (Cerep/DiscoverX SafetyScreen44 in vitro pharmacology panel)
Description: (§1) Listed values represent the percent change relative to the DMSO control activity. When an IC50 had to be determined, eight different concentrations were included. All values are the mean of assay readout duplicates.

M1 = target: T2, M1 (Homo sapiens, UniProt P11229); assay: In vitro pharmacology panel (Eurofins); format: binding; settings: read-out: activity (% of DMSO control)
T2 construct: purchased Eurofins (Cerep/DiscoverX SafetyScreen44 in vitro pharmacology panel)
Description: as §1

A2A = target: T3, A2A (Homo sapiens, UniProt P29274); assay: In vitro pharmacology panel (Eurofins); format: binding; settings: read-out: activity (% of DMSO control)
T3 construct: purchased Eurofins (Cerep/DiscoverX SafetyScreen44 in vitro pharmacology panel)
Description: as §1

H2 = target: T4, H2 (Homo sapiens, UniProt P25021); assay: In vitro pharmacology panel (Eurofins); format: binding; settings: read-out: activity (% of DMSO control)
T4 construct: purchased Eurofins (Cerep/DiscoverX SafetyScreen44 in vitro pharmacology panel)
T4 sequence (P25021 whole entry): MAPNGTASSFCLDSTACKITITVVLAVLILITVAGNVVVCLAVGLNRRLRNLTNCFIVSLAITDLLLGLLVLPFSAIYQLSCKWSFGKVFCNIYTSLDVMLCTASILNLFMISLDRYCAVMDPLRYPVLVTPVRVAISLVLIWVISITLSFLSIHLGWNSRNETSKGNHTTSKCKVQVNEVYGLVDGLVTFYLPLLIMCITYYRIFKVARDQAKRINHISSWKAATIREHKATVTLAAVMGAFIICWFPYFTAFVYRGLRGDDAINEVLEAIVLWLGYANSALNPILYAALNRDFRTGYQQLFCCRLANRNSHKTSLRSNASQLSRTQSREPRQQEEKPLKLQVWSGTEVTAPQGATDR
Description: as §1

α2A = target: T5, α2A (Homo sapiens, UniProt P08913); assay: In vitro pharmacology panel (Eurofins); format: binding; settings: read-out: activity (% of DMSO control)
T5 construct: purchased Eurofins (Cerep/DiscoverX SafetyScreen44 in vitro pharmacology panel)
Description: as §1

MAO-A = target: T6, MAO-A (Rattus norvegicus, UniProt P21396); assay: In vitro pharmacology panel (Eurofins); format: binding; settings: read-out: activity (% of DMSO control)
T6 construct: purchased Eurofins (Cerep/DiscoverX SafetyScreen44 in vitro pharmacology panel)
T6 sequence (P21396 whole entry): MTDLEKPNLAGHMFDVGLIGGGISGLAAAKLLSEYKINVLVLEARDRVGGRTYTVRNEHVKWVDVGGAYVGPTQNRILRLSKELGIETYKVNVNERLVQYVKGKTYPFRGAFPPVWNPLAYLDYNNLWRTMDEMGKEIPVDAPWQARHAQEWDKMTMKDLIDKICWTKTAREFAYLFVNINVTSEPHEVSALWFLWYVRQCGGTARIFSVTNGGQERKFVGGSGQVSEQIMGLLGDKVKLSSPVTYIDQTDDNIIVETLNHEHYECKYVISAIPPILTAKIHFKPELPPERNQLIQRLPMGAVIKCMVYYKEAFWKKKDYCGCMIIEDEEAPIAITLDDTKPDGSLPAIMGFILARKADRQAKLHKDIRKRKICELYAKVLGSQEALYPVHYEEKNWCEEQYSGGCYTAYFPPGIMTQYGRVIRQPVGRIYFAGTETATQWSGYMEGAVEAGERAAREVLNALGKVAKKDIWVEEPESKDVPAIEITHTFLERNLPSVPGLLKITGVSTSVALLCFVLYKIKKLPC
Description: as §1

CCK1 (CCKA) = target: T7, CCK1 (CCKA) (Homo sapiens, UniProt P32238); assay: In vitro pharmacology panel (Eurofins); format: binding; settings: read-out: activity (% of DMSO control)
T7 construct: purchased Eurofins (Cerep/DiscoverX SafetyScreen44 in vitro pharmacology panel)
Description: as §1

GR = target: T8, GR (Homo sapiens, UniProt P04150); assay: In vitro pharmacology panel (Eurofins); format: binding; settings: read-out: activity (% of DMSO control)
T8 construct: purchased Eurofins (Cerep/DiscoverX SafetyScreen44 in vitro pharmacology panel)
T8 sequence (P04150 whole entry): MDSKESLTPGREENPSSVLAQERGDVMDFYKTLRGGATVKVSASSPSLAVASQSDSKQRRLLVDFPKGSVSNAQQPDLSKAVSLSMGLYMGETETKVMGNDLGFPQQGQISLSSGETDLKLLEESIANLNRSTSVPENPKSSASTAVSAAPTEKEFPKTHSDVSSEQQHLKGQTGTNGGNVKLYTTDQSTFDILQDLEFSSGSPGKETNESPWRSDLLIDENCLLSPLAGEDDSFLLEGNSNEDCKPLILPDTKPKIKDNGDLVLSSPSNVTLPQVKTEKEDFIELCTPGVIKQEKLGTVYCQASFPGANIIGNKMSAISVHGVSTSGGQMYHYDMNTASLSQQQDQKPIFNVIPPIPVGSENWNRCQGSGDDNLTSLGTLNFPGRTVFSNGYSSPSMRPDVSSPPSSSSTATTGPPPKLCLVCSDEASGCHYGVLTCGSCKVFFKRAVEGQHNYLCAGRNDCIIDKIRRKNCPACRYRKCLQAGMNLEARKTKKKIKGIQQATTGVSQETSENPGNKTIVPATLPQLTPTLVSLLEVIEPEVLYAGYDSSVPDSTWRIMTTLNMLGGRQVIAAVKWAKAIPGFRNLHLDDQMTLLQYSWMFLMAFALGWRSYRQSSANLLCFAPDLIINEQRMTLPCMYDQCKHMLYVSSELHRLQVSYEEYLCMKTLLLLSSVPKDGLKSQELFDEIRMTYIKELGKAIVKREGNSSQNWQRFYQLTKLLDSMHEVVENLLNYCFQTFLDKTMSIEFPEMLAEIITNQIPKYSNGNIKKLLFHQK
Description: as §1

μ (MOP) = target: T9, μ (MOP) (Homo sapiens, UniProt P35372); assay: In vitro pharmacology panel (Eurofins); format: binding; settings: read-out: activity (% of DMSO control)
T9 construct: purchased Eurofins (Cerep/DiscoverX SafetyScreen44 in vitro pharmacology panel)
Description: as §1

N neuronal α4β2 = target: T10, N neuronal α4β2 (Homo sapiens, UniProt P17787+P43681); assay: In vitro pharmacology panel (Eurofins); format: binding; settings: read-out: activity (% of DMSO control)
T10 construct: purchased Eurofins (Cerep/DiscoverX SafetyScreen44 in vitro pharmacology panel)
Description: as §1

H1 = target: T11, H1 (Homo sapiens, UniProt P35367); assay: In vitro pharmacology panel (Eurofins); format: binding; settings: read-out: activity (% of DMSO control)
T11 construct: purchased Eurofins (Cerep/DiscoverX SafetyScreen44 in vitro pharmacology panel)
T11 sequence (P35367 whole entry): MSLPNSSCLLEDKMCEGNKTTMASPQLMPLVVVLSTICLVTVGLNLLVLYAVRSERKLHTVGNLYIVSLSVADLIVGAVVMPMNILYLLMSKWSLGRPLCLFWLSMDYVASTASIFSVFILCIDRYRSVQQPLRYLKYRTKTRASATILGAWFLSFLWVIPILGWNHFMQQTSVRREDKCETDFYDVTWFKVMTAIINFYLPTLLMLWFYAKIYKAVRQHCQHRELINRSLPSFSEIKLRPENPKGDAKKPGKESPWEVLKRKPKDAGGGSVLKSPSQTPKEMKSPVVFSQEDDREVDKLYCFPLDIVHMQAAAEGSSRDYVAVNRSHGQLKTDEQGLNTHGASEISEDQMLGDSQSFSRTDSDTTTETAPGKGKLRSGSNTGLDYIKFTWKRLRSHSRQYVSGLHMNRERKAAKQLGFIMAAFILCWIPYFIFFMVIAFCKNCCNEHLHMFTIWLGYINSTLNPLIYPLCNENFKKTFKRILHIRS
Description: as §1

dopamine transporter = target: T12, dopamine transporter (Homo sapiens, UniProt Q01959); assay: In vitro pharmacology panel (Eurofins); format: binding; settings: read-out: activity (% of DMSO control)
T12 construct: purchased Eurofins (Cerep/DiscoverX SafetyScreen44 in vitro pharmacology panel)
Description: as §1

δ (DOP) = target: T13, δ (DOP) (Homo sapiens, UniProt P41143); assay: In vitro pharmacology panel (Eurofins); format: binding; settings: read-out: activity (% of DMSO control)
T13 construct: purchased Eurofins (Cerep/DiscoverX SafetyScreen44 in vitro pharmacology panel)
Description: as §1

κ (KOP) = target: T14, κ (KOP) (Rattus norvegicus, UniProt P34975); assay: In vitro pharmacology panel (Eurofins); format: binding; settings: read-out: activity (% of DMSO control)
T14 construct: purchased Eurofins (Cerep/DiscoverX SafetyScreen44 in vitro pharmacology panel)
T14 sequence (P34975 whole entry): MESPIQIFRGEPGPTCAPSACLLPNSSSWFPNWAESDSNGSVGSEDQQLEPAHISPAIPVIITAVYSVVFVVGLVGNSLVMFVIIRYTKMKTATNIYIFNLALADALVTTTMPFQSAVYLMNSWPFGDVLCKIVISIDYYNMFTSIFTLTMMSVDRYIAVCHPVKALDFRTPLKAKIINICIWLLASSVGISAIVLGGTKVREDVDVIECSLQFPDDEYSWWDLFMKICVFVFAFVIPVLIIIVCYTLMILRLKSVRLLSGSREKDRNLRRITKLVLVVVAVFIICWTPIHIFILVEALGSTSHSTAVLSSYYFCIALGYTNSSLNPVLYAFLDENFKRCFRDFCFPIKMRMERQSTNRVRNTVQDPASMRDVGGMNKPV
Description: as §1

CB2 = target: T15, CB2 (Homo sapiens, UniProt P34972); assay: In vitro pharmacology panel (Eurofins); format: binding; settings: read-out: activity (% of DMSO control)
T15 construct: purchased Eurofins (Cerep/DiscoverX SafetyScreen44 in vitro pharmacology panel)
T15 sequence (P34972 whole entry): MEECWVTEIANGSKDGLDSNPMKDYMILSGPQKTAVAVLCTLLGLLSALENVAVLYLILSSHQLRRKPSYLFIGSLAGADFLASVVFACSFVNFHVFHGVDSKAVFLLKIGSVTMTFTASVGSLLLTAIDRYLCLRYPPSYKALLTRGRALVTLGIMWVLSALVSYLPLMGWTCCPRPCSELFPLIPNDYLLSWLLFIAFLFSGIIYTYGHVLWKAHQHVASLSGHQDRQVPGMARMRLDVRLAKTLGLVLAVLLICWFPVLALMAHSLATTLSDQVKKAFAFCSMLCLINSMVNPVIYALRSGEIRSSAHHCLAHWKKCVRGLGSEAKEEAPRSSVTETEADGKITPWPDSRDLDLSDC
Description: as §1

5-HT2A = target: T16, 5-HT2A (Homo sapiens, UniProt P28223); assay: In vitro pharmacology panel (Eurofins); format: binding; settings: read-out: activity (% of DMSO control)
T16 construct: purchased Eurofins (Cerep/DiscoverX SafetyScreen44 in vitro pharmacology panel)
T16 sequence (P28223 whole entry): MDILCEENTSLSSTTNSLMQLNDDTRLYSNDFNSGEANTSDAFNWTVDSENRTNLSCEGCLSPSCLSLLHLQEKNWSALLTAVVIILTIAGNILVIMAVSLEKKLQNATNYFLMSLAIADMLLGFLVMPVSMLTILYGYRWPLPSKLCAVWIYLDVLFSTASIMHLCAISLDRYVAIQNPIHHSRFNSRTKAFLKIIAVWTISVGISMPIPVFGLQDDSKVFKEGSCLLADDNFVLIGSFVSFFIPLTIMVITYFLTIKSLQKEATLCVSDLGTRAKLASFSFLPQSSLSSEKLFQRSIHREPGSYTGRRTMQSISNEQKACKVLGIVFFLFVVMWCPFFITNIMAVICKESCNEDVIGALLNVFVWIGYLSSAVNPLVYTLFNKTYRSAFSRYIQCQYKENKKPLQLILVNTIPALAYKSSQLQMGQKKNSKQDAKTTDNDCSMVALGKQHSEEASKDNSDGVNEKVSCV
Description: as §1

β1 = target: T17, β1 (Homo sapiens, UniProt P08588); assay: In vitro pharmacology panel (Eurofins); format: binding; settings: read-out: activity (% of DMSO control)
T17 construct: purchased Eurofins (Cerep/DiscoverX SafetyScreen44 in vitro pharmacology panel)
Description: as §1

α1A = target: T18, α1A (Homo sapiens, UniProt P35348); assay: In vitro pharmacology panel (Eurofins); format: binding; settings: read-out: activity (% of DMSO control)
T18 construct: purchased Eurofins (Cerep/DiscoverX SafetyScreen44 in vitro pharmacology panel)
Description: as §1

M3 = target: T19, M3 (Homo sapiens, UniProt P20309); assay: In vitro pharmacology panel (Eurofins); format: binding; settings: read-out: activity (% of DMSO control)
T19 construct: purchased Eurofins (Cerep/DiscoverX SafetyScreen44 in vitro pharmacology panel)
Description: as §1

5-HT transporter = target: T20, 5-HT transporter (Homo sapiens, UniProt P31645); assay: In vitro pharmacology panel (Eurofins); format: binding; settings: read-out: activity (% of DMSO control)
T20 construct: purchased Eurofins (Cerep/DiscoverX SafetyScreen44 in vitro pharmacology panel)
Description: as §1

ETA = target: T21, ETA (Homo sapiens, UniProt P25101); assay: In vitro pharmacology panel (Eurofins); format: binding; settings: read-out: activity (% of DMSO control)
T21 construct: purchased Eurofins (Cerep/DiscoverX SafetyScreen44 in vitro pharmacology panel)
T21 sequence (P25101 21-427): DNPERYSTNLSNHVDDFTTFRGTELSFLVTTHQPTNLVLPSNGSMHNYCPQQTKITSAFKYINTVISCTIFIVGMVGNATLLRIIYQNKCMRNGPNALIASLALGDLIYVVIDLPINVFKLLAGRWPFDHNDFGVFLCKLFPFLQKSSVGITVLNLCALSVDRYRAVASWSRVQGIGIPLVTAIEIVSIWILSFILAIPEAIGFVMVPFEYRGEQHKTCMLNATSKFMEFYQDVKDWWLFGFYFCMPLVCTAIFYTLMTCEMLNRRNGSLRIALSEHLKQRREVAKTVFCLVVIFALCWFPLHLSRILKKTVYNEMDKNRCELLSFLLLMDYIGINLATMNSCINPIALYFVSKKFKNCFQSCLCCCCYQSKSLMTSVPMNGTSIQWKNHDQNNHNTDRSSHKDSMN
Description: as §1

5-HT1B = target: T22, 5-HT1B (Rattus norvegicus, UniProt P28564); assay: In vitro pharmacology panel (Eurofins); format: binding; settings: read-out: activity (% of DMSO control)
T22 construct: purchased Eurofins (Cerep/DiscoverX SafetyScreen44 in vitro pharmacology panel)
T22 sequence (P28564 whole entry): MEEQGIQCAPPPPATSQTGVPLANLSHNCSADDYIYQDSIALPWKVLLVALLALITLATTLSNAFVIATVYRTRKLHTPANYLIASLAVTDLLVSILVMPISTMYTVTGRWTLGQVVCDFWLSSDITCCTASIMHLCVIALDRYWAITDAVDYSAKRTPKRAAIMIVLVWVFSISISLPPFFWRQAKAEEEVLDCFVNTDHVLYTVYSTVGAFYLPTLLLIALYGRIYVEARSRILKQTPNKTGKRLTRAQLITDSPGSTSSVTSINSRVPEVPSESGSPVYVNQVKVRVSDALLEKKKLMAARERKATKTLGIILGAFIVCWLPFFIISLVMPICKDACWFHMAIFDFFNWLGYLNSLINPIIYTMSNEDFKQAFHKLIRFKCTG
Description: as §1

CB1 = target: T23, CB1 (Homo sapiens, UniProt P21554); assay: In vitro pharmacology panel (Eurofins); format: binding; settings: read-out: activity (% of DMSO control)
T23 construct: purchased Eurofins (Cerep/DiscoverX SafetyScreen44 in vitro pharmacology panel)
Description: as §1

V1 a = target: T24, V1 a (Homo sapiens, UniProt P37288); assay: In vitro pharmacology panel (Eurofins); format: binding; settings: read-out: activity (% of DMSO control)
T24 construct: purchased Eurofins (Cerep/DiscoverX SafetyScreen44 in vitro pharmacology panel)
Description: as §1

CYP2C19 = target: T25, CYP2C19 (Homo sapiens, UniProt P33261); assay: Cytochrome P450 inhibition, human liver microsomes; format: in vitro ADME
T25 construct: incubation of isoform-specific substrates with human liver microsomes; from tissue; host or cells: human liver microsomes
T25 sequence (P33261 whole entry, canonical isoform): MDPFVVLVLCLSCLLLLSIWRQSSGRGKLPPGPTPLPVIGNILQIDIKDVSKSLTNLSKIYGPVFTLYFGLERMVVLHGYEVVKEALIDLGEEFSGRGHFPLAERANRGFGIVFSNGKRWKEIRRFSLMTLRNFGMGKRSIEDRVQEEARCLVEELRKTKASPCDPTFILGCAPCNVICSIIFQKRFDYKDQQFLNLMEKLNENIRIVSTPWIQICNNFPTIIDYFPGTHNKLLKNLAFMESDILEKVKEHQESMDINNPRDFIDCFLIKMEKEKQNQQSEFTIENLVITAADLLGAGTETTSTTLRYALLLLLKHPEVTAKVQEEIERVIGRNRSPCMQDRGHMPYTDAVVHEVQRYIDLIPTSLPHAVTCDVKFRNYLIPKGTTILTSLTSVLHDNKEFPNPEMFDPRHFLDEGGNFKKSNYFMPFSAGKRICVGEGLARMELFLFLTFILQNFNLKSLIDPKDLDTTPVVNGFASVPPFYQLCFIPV
Method: (§2) Direct CYP inhibition studies were conducted using conditions described previously ([43]) following incubation of isoform-specific substrates with human liver microsomes. The formation of known metabolites mediated by a specific CYP isoform was monitored. CYP isoform-specific pathways (and positive control inhibitors) included CYP1A2: phenacetin O-deethylation (furafylline), CYP2B6: bupropion hydroxylation (PPP), CYP2C8: amodiaquine deethylation (quercetin) CYP2C9: tolbutamide methylhydroxylation (sulfaphenazole), CYP2C19: (S)-mephenytoin 4’-hydroxylation (ticlopidine), CYP2D6: dextromethorphan O-demethylation (quinidine), and CYP3A: midazolam 1’-hydroxylation and testosterone 6β-hydroxylation (ketoconazole). […] The organic solvent content was maintained at less than 1% (v/v). NADPH was added to initiate the reaction which was then quenched by the addition of acetonitrile containing internal standard at specified times. Concentrations of the isoform-specific metabolites were quantified by LC-MS (Waters Xevo TQD triple quadrupole MS coupled to a Waters Acquity UPLC system) relative to calibration standards prepared in pre-quenched microsomal matrix.
(§3) Time dependent inhibition was assessed using an “IC50 shift” method based on a previous publication ([44]). […] A shift in the IC50 in the presence of NADPH (relative to the absence) was used as an indication of time dependent inhibition. Reference direct and time-dependent inhibitors were included in the assays.

CYP2B6 = target: T26, CYP2B6 (Homo sapiens, UniProt P20813); assay: Cytochrome P450 inhibition, human liver microsomes; format: in vitro ADME
T26 construct: incubation of isoform-specific substrates with human liver microsomes; from tissue; host or cells: human liver microsomes
T26 sequence (P20813 1-491): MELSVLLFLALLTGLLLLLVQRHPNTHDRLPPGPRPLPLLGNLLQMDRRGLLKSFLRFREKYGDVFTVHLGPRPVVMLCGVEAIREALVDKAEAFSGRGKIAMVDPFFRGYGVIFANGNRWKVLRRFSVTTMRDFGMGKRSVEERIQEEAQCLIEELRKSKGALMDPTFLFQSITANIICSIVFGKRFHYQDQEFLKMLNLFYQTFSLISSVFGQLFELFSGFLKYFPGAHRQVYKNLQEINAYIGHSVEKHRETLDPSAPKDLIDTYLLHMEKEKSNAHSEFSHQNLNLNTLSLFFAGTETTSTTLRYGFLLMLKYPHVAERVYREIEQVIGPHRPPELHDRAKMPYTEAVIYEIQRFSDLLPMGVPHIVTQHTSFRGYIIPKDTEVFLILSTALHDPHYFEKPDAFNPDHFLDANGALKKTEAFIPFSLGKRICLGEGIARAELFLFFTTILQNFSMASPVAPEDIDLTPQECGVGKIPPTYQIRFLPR
Method: as §2, §3

[1] = with NADPH preincubation, read-out: Time-dependent inhibition IC50
[2] = without NADPH preincubation, read-out: Time-dependent inhibition IC50

Compound: Cc1[nH]c2nc(N)nc(C)c2c1-c1ccc(C#N)c2c1OCO2 [DNDI-6174]
- remaining activity at 10 µM (D1): 63.1%
- remaining activity at 10 µM (M1): 91.5%
- remaining activity at 10 µM (A2A): 83.8%
- remaining activity at 10 µM (H2): 120%
- remaining activity at 10 µM (α2A): 60.3%
- remaining activity at 10 µM (MAO-A): 94.3%
- remaining activity at 10 µM (CCK1 (CCKA)): 126%
- remaining activity at 10 µM (GR): 93%
- remaining activity at 10 µM (μ (MOP)): 94.3%
- remaining activity at 10 µM (N neuronal α4β2): 100%
- remaining activity at 10 µM (H1): 91.8%
- remaining activity at 10 µM (dopamine transporter): 60.6%
- remaining activity at 10 µM (δ (DOP)): 102%
- remaining activity at 10 µM (κ (KOP)): 90.6%
- remaining activity at 10 µM (CB2): 96.1%
- remaining activity at 10 µM (5-HT2A): 93.9%
- remaining activity at 10 µM (β1): 113%
- remaining activity at 10 µM (α1A): 25.1%
- remaining activity at 10 µM (M3): 98.5%
- remaining activity at 10 µM (5-HT transporter): 69.9%
- remaining activity at 10 µM (ETA): 103%
- remaining activity at 10 µM (5-HT1B): 91.4%
- remaining activity at 10 µM (CB1): 104%
- remaining activity at 10 µM (V1 a): 101%
- IC50 (CYP2C19; CYP2C19, read-out: Direct inhibition IC50): 19 µM
- IC50 (CYP2C19; [1]): 7.4 µM
- IC50 (CYP2C19; [2]): 13.6 µM
- IC50 (CYP2B6; CYP2B6, read-out: Direct inhibition IC50): > 20 µM
- IC50 (CYP2B6; [1]): > 20 µM
- IC50 (CYP2B6; [2]): > 20 µM
